Assay results reported in ChEMBL document CHEMBL3637782, “GSK Tres Cantos Follow-up TB Screening Data” (2016).
Converted amounts (≈) assume the structure as drawn.

Experiments:
[1] = test system: Mycobacterium tuberculosis H37Rv; assay: GSK_TB: Minimum inhibitory concentration against H37Rv stain of Mycobacterium tuberculosis using MABA method; assay type: functional; conditions: ATCC25618
[2] = test system: Mycobacterium tuberculosis H37Rv; assay: GSK_TB: Inhibition of the intracellular growth of Mycobacterium tuberculosis (pXC50); assay type: functional, ATCC25618
[3] = test system: HepG2; assay: GSK_TB: The cytotoxicity against HepG2 cells expressed as IC50; assay type: functional, cell-based; conditions: Homo sapiens
[4] = GSK_TB: Kinetic solubility of the compound in phosphate buffered saline at pH 7.4 after 1 hr by CLND method; assay type: physicochemical
[5] = GSK_TB: Lipophilicity, log D of the compound at pH 7.4 by ChromlogD analysis; assay type: physicochemical; conditions: buffer
[6] = GSK_TB: AVG_CHROM_LOGP; assay type: physicochemical
[7] = test system: Mycobacterium tuberculosis H37Rv; assay: GSK_TB: Growth inhibition of non-replicating Mycobacterium tuberculosis (pXC50); assay type: functional, ATCC25618

## O=C(NCc1ccco1)N1CCN(Cc2ccc3c(c2)CCO3)CC1
[1]
  MIC: 2 µM (≈ 0.683 µg/mL)
[2]
  pXC50: 5.8
[3]
  IC50: > 100 µM
[4]
  solubility kinetic at 1 h: 88 µg/mL (≈ 258 µM)
[5]
  Lipophilicity: 3.47
[6]
  Lipophilicity: 3.5941

## COc1ccc2nccc(NC(=O)C3CCN(CCc4ccc(Cl)cc4)CC3)c2n1
[1]
  MIC: 0.2 µM (≈ 0.085 µg/mL)
[2]
  pXC50: 6.6
[7]
  pXC50: 5.1
[3]
  IC50: > 100 µM
[4]
  solubility kinetic at 1 h: 4 µg/mL (≈ 9.41 µM)
[5]
  Lipophilicity: 5.49

## O=C(NCc1ccoc1)N1CCN(Cc2ccc3c(c2)OCO3)CC1
[1]
  MIC: 1.25 µM (≈ 0.429 µg/mL)
[2]
  pXC50: 6.3
[3]
  IC50: > 100 µM
[4]
  solubility kinetic at 1 h: 86 µg/mL (≈ 250 µM)
[5]
  Lipophilicity: 3.48
[6]
  Lipophilicity: 3.5288

## Nc1ccccc1Nc1ccc(Cl)cc1
[1]
  MIC: 2 µM (≈ 0.437 µg/mL)
[2]
  pXC50: 7.8
[7]
  pXC50: 4.5
[3]
  IC50: 79 µM
[4]
  solubility kinetic at 1 h: 59 µg/mL (≈ 270 µM)
[5]
  Lipophilicity: 5.76
[6]
  Lipophilicity: 5.9114

## O=C(NCc1ccco1)N1CCN(Cc2cccs2)CC1
[1]
  MIC: 2.5 µM (≈ 0.764 µg/mL)
[2]
  pXC50: 5.4
[3]
  IC50: > 100 µM
[4]
  solubility kinetic at 1 h: ≥ 105 µg/mL
[5]
  Lipophilicity: 3.53
[6]
  Lipophilicity: 3.5288

## O=S(=O)(NCc1ccccc1)c1ccc(-c2cc3ccncc3cc2OC2CCNCC2)s1
[1]
  MIC: 2.5 µM (≈ 1.2 µg/mL)
[2]
  pXC50: 5.4
[3]
  IC50: 10 µM
[4]
  solubility kinetic at 1 h: 33 µg/mL (≈ 68.8 µM)
[5]
  Lipophilicity: 3.2
[6]
  Lipophilicity: 4.4101

## COc1ccc(-c2nnc3sc(Cc4csc(C)n4)nn23)cc1
[1]
  MIC: 2.5 µM (≈ 0.859 µg/mL)
[2]
  pXC50: 5.7
[3]
  IC50: > 100 µM
[4]
  solubility kinetic at 1 h: 95 µg/mL (≈ 277 µM)
[5]
  Lipophilicity: 3.97
[6]
  Lipophilicity: 4.0511

## CNc1nc(SC)nnc1-c1cccc(Cl)c1Cl
[1]
  MIC: 2.5 µM (≈ 0.753 µg/mL)
[2]
  pXC50: 6.1
[3]
  IC50: > 100 µM
[4]
  solubility kinetic at 1 h: ≥ 85 µg/mL
[5]
  Lipophilicity: 4.94
[6]
  Lipophilicity: 4.9976

## Nc1ccc(C(O)CNCCc2ccccc2)cc1O (stereo not drawn)
[1]
  MIC: 2.9 µM (≈ 0.79 µg/mL)
[2]
  pXC50: 4.97
[3]
  IC50: 50 µM
[4]
  solubility kinetic at 1 h: 53 µg/mL (≈ 195 µM)
[5]
  Lipophilicity: 0.97
[6]
  Lipophilicity: 1.7338

## O=C(Nc1nc2c(s1)CCCc1cccnc1-2)c1ccccc1C(F)(F)F
[1]
  MIC: 3.7 µM (≈ 1.44 µg/mL)
[2]
  pXC50: 6.2
[3]
  IC50: 79 µM
[4]
  solubility kinetic at 1 h: 9 µg/mL (≈ 23.1 µM)
[5]
  Lipophilicity: 5.26
[6]
  Lipophilicity: 5.2587

## CN(Cc1ccc(Cl)cc1)C(=O)CCc1nc2ccccc2oc1=O
[1]
  MIC: 3.9 µM (≈ 1.39 µg/mL)
[2]
  pXC50: <4.3
[7]
  pXC50: 4.9
[3]
  IC50: > 100 µM
[4]
  solubility kinetic at 1 h: 127 µg/mL (≈ 356 µM)
[5]
  Lipophilicity: 5.86
[6]
  Lipophilicity: 6.0093

## Clc1nnc(N2CCCC2)c2ccccc12
[1]
  MIC: 4 µM (≈ 0.935 µg/mL)
[2]
  pXC50: 5.8
[3]
  IC50: > 100 µM
[4]
  solubility kinetic at 1 h: ≥ 100 µg/mL
[5]
  Lipophilicity: 4.41
[6]
  Lipophilicity: 4.4101

## Cc1nc(Nc2cnn(Cc3ccccc3F)c2)c2nn(C)c(C)c2n1
[1]
  MIC: 4 µM (≈ 1.41 µg/mL)
[2]
  pXC50: 6
[3]
  IC50: > 100 µM
[4]
  solubility kinetic at 1 h: 23 µg/mL (≈ 65.5 µM)
[5]
  Lipophilicity: 3.41
[6]
  Lipophilicity: 3.4146

## O=[N+]([O-])c1cnc(-c2nc3ccccc3[nH]2)s1
[1]
  MIC: 4.4 µM (≈ 1.08 µg/mL)
[2]
  pXC50: <4.3
[3]
  IC50: 10 µM
[4]
  solubility kinetic at 1 h: 16 µg/mL (≈ 65 µM)
[5]
  Lipophilicity: 3.17
[6]
  Lipophilicity: 4.459

## FC(F)(F)Oc1ccc(-c2cc3ccncc3cc2OC2CCNCC2)cc1
[1]
  MIC: 5 µM (≈ 1.94 µg/mL)
[2]
  pXC50: 5.5
[3]
  IC50: 16 µM
[4]
  solubility kinetic at 1 h: 82 µg/mL (≈ 211 µM)
[5]
  Lipophilicity: 3.47
[6]
  Lipophilicity: 6.8742

## CCCCNCC1COc2ccc(OC)cc2C1=O (stereo not drawn)
[1]
  MIC: 5 µM (≈ 1.32 µg/mL)
[2]
  pXC50: 5.3
[3]
  IC50: 12 µM
[4]
  solubility kinetic at 1 h: 118 µg/mL (≈ 448 µM)
[5]
  Lipophilicity: 2.99
[6]
  Lipophilicity: 5.6014
